Among the test systems are A498; K562; SN12C; RPMI-8226; NCI-H226; HL-60; TK-10; HCC 2998; SNB-19; EKVX; HOP-92; KM12; SK-MEL-5; SF-539; ACHN; Malme-3M; UACC-257; SK-MEL-2; OVCAR-8; OVCAR-4.
Common to all, as to assay: NCI-60 cell line screen, 48 h

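Results reflect a 48-hour exposure of cells in 96-well plates to compound at five concentrations. GI50 marks 50% less growth.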 Activity calls are given as the source filed them. No stated cut-off is given here; in the data, active = GI50 up to about 1.1 µM and inactive = higher.

As to `COc1cccc2c1-c1c(OC)cccc1SS2`, the GI50 in the assay with A498 was 8.75 µM (inactive); with K562, 27.5 µM (inactive); with SN12C, 13.8 µM (inactive); in the assay on RPMI-8226, 11.4 µM (inactive); with NCI-H226, 16 µM (inactive); with HL-60 it was 1.01 µM (active). Further, the GI50 with TK-10 was 21.9 µM (inactive); in the assay on HCC 2998 it was 20.9 µM (inactive); with SNB-19 it was 24.8 µM (inactive); in the assay with EKVX it was 13.1 µM (inactive); in the assay with HOP-92 it was 19.9 µM (inactive); in the assay on KM12 it was 34 µM (inactive). Also, the GI50 was 13.6 µM (inactive) in the assay with SK-MEL-5; 17.7 µM (inactive) in the assay with SF-539; 41.8 µM (inactive) in the assay with ACHN; 18.1 µM (inactive) in the assay with Malme-3M; 11.6 µM (inactive) with UACC-257; 17.5 µM (inactive) with SK-MEL-2. Besides, the GI50 with OVCAR-8 was 25.9 µM (inactive); in the assay with OVCAR-4, 21.8 µM (inactive).

In the case of `Cc1nc2cc(/N=N/c3c(O)ccc4ccccc34)ccc2[nH]1`, the GI50 was > 55 µM (inactive) in the assay with A498; 23.9 µM (inactive) with K562; 36.9 µM (inactive) with SN12C; 24.3 µM (inactive) in the assay with RPMI-8226; > 62.2 µM (inactive) with NCI-H226; 15.1 µM (inactive) with HL-60. Further, the GI50 in the assay on TK-10 is > 76.2 µM (inactive); in the assay on HCC 2998, > 50.5 µM (inactive); in the assay with SNB-19, > 96.4 µM (inactive); with EKVX it was > 49.9 µM (inactive); in the assay on HOP-92, 24 µM (inactive); with KM12, 25.4 µM (inactive). The GI50 in the assay with SK-MEL-5 was 31.9 µM (inactive); in the assay with SF-539, 26.7 µM (inactive); with ACHN, 32.3 µM (inactive); in the assay with Malme-3M, > 51.2 µM (inactive); with UACC-257, 24.8 µM (inactive); in the assay with SK-MEL-2, 42.2 µM (inactive). The GI50 in the assay with OVCAR-8 is 27.4 µM (inactive); in the assay with OVCAR-4, 18.8 µM (inactive).

Turning to `CC1=C(NC(=O)C(=O)NNC(=O)c2ccncc2)C(=O)c2ccccc2C1=O`, the GI50 with A498 is 23.8 µM (inactive); in the assay with K562 it was 24.1 µM (inactive); in the assay on SN12C it was 11.8 µM (inactive); in the assay on RPMI-8226, 19.5 µM (inactive); with NCI-H226, 14.2 µM (inactive); in the assay with HL-60, 10.8 µM (inactive). The GI50 with TK-10 was 45.2 µM (inactive); in the assay with HCC 2998, 16.9 µM (inactive); in the assay on SNB-19, 17.5 µM (inactive); in the assay with EKVX, 13.5 µM (inactive); in the assay on HOP-92 it was 15.5 µM (inactive); in the assay with KM12, 15.3 µM (inactive). For the same molecule, the GI50 in the assay on SK-MEL-5 is 1.98 µM (inactive); with SF-539, 17.2 µM (inactive); in the assay with ACHN it was 16.1 µM (inactive); in the assay with Malme-3M, 5.26 µM (inactive); with UACC-257, 9.77 µM (inactive); in the assay on SK-MEL-2 it was 2.3 µM (inactive). In addition, the GI50 in the assay with OVCAR-8 was 18.4 µM (inactive); in the assay on OVCAR-4, 13.8 µM (inactive).

With `N#CC1=C(N)N2C(=O)/C(=C/c3ccccc3O)N=C2S1`, the GI50 was > 100 µM (inactive) in the assay on A498; 26.1 µM (inactive) in the assay on K562; > 100 µM (inactive) in the assay on SN12C; 30.6 µM (inactive) in the assay with RPMI-8226; > 100 µM (inactive) in the assay on NCI-H226; 20.8 µM (inactive) in the assay on HL-60. Besides, the GI50 in the assay with TK-10 was > 100 µM (inactive); with HCC 2998, 92.9 µM (inactive); with SNB-19, > 100 µM (inactive); in the assay with EKVX it was 51.9 µM (inactive); in the assay on HOP-92 it was > 100 µM (inactive); in the assay with KM12, > 100 µM (inactive). The GI50 in the assay with SK-MEL-5 was 80 µM (inactive); with SF-539, 28.8 µM (inactive); in the assay with ACHN, > 100 µM (inactive); in the assay on Malme-3M it was > 100 µM (inactive); in the assay with UACC-257, > 100 µM (inactive); with SK-MEL-2 it was > 100 µM (inactive). Moreover, the figures for the GI50 with OVCAR-8 and in the assay with OVCAR-4 were > 100 µM (inactive) and 44.5 µM (inactive), respectively.

Consider `CN(/N=C/c1ccccc1C(=O)O)C1=NCCCCN1`, for which the GI50 in the assay with A498, with K562, in the assay on SN12C, with RPMI-8226, in the assay on NCI-H226 and in the assay on HL-60 was > 100 µM (inactive) each time. The GI50 with TK-10, with HCC 2998, with SNB-19, in the assay on EKVX, in the assay with HOP-92 and with KM12 was > 100 µM (inactive) each time. Further, the GI50 with SK-MEL-5, in the assay with SF-539, with ACHN, with Malme-3M, in the assay on UACC-257 and with SK-MEL-2 was > 100 µM (inactive) each time. Further, the GI50 in the assay on OVCAR-8 and in the assay on OVCAR-4 was > 100 µM (inactive) in each case.

On to `O=C1C(Cl)=C(Cl)C(=O)N1c1cccc(C(F)(F)F)c1`, for which the GI50 with A498 is > 100 µM (inactive); in the assay with K562, > 54.5 µM (inactive); in the assay with SN12C, > 100 µM (inactive); in the assay on RPMI-8226, > 65.6 µM (inactive); with NCI-H226, > 100 µM (inactive); with HL-60, > 100 µM (inactive). The GI50 with TK-10, in the assay on HCC 2998, in the assay with SNB-19, with EKVX, with HOP-92 and in the assay on KM12 was > 100 µM (inactive) each time. Besides, the GI50 in the assay with SK-MEL-5, in the assay with SF-539, in the assay with ACHN, in the assay on Malme-3M, with UACC-257 and with SK-MEL-2 was > 100 µM (inactive) in each case. The GI50 in the assay with OVCAR-8 and in the assay with OVCAR-4 was > 100 µM (inactive) throughout.

Regarding `COC(=O)C(=O)C(C(=O)C(=O)Nc1cccc(OC)c1)c1nc2ccc(Cl)cc2nc1O` (stereo not given), the GI50 in the assay on A498, in the assay on K562, with SN12C, in the assay on RPMI-8226, with NCI-H226 and in the assay with HL-60 was > 100 µM (inactive) throughout. The GI50 with TK-10 was > 100 µM (inactive); in the assay with HCC 2998 it was 96.2 µM (inactive); in the assay on SNB-19 it was > 100 µM (inactive); with EKVX, 27.6 µM (inactive); in the assay on HOP-92, 74.5 µM (inactive); in the assay on KM12, > 100 µM (inactive). Further, the GI50 in the assay on SK-MEL-5, in the assay on SF-539, in the assay with ACHN, with Malme-3M, with UACC-257 and with SK-MEL-2 was > 100 µM (inactive) throughout. Further, the GI50 in the assay with OVCAR-8 and with OVCAR-4 was > 100 µM (inactive) in each case.

For `CC1=C2C(=CC(C)(CO)C2O)C(=O)C(C)(O)C12CC2` (stereo not given), the GI50 with A498 is 0.00716 µM (active); with K562 it was 0.00279 µM (active); in the assay with SN12C, 0.00705 µM (active); with RPMI-8226 it was 0.895 µM (active); with NCI-H226, 0.00492 µM (active); with HL-60, 0.00131 µM (active). Also, the GI50 was 0.00719 µM (active) in the assay on TK-10; 0.00213 µM (active) with HCC 2998; 0.00474 µM (active) with SNB-19; 0.0103 µM (active) in the assay on EKVX; 0.00255 µM (active) in the assay on HOP-92; 0.00228 µM (active) in the assay with KM12. For the same molecule, the GI50 in the assay on SK-MEL-5 is 0.00108 µM (active); in the assay with SF-539, 0.00569 µM (active); in the assay with ACHN it was 0.00152 µM (active); with Malme-3M, 0.00361 µM (active); in the assay on UACC-257, 0.00249 µM (active); in the assay with SK-MEL-2, 0.00148 µM (active). The GI50 was 0.00286 µM (active) in the assay on OVCAR-8 and 0.00243 µM (active) in the assay on OVCAR-4.

Take `C=C1C(=O)O[C@@H]2/C=C(/C)[C@@H](OC(C)=O)C[C@@H](O)/C(C)=C\[C@@H](OC(=O)[C@]3(C)O[C@@H]3C)[C@@H]12`: the GI50 is 18.1 µM (inactive) in the assay with A498; 3.34 µM (inactive) in the assay on K562; 12.3 µM (inactive) in the assay on SN12C; 5.78 µM (inactive) in the assay on RPMI-8226; 40.4 µM (inactive) with NCI-H226; 2.39 µM (inactive) in the assay on HL-60. For the same molecule, the GI50 was 15.6 µM (inactive) in the assay on TK-10; 18.2 µM (inactive) in the assay with HCC 2998; 47.4 µM (inactive) in the assay on SNB-19; 11 µM (inactive) in the assay on EKVX; 12.7 µM (inactive) in the assay on HOP-92; 17.5 µM (inactive) in the assay with KM12. The GI50 in the assay with SK-MEL-5 is 11.4 µM (inactive); with SF-539 it was 21.2 µM (inactive); with ACHN, 11.8 µM (inactive); with Malme-3M, 2.86 µM (inactive); in the assay with UACC-257, 15.7 µM (inactive); in the assay on SK-MEL-2 it was 17.2 µM (inactive). Besides, the figures for the GI50 in the assay on OVCAR-8 and with OVCAR-4 were 13.1 µM (inactive) and 21.9 µM (inactive), respectively.

For the molecule `C[C@@H]1C[C@H](O)[C@]2(O)O[C@@H]3C[C@@]4(C=O)[C@@H](CC[C@@H]5[C@@H]4CC[C@]4(C)[C@@H](C6=CC(=O)OC6)CC[C@]54O)C[C@H]3O[C@@H]2O1` [CALOTROPIN], the GI50 is 0.0531 µM (active) with A498; 0.0365 µM (active) in the assay on K562; 0.0202 µM (active) in the assay on SN12C; 0.0246 µM (active) in the assay on RPMI-8226; 0.0815 µM (active) in the assay on NCI-H226; 0.0397 µM (active) with HL-60. Further, the GI50 is 0.0254 µM (active) in the assay on TK-10; 0.0593 µM (active) in the assay on HCC 2998; 0.083 µM (active) in the assay with SNB-19; 0.0178 µM (active) in the assay on EKVX; 0.0545 µM (active) in the assay with HOP-92; 0.0809 µM (active) with KM12. Also, the GI50 is 0.0278 µM (active) in the assay with SK-MEL-5; 0.0212 µM (active) in the assay with SF-539; 0.0188 µM (active) with ACHN; 0.0167 µM (active) with Malme-3M; 0.0592 µM (active) in the assay on UACC-257; 0.0436 µM (active) in the assay on SK-MEL-2. Moreover, the results for the GI50 in the assay with OVCAR-8 and in the assay with OVCAR-4 were 0.0348 µM (active) and 0.0179 µM (active), respectively.

(Values after ChEMBL document CHEMBL1201862, “PubChem BioAssay data set” (2004).)
